Data reported in DBAASP.
Values after ≈ are worked out from the molar mass of the structure shown. Blank lines part the entries; values can stand above or below the compound they belong to.

Tests used:
Assay in all cases: ≥ marks a high value that may be exact or a test limit, other limits are often not marked, values filed in µg/mL are converted to µM
Bacillus cereus = test system: Bacillus cereus
Escherichia coli = test system: Escherichia coli
[1] = test system: Candida albicans ATCC 90028
[2] = test system: Staphylococcus aureus ATCC 25923
[3] = test system: Escherichia coli ATCC 25922
Staphylococcus aureus = test system: Staphylococcus aureus
Candida albicans = test system: Candida albicans
Bacillus subtilis = test system: Bacillus subtilis
[4] = test system: Staphylococcus aureus ATCC 29213
[5] = test system: Pseudomonas aeruginosa ATCC 27853
[6] = test system: Staphylococcus epidermidis ATCC 12228
[7] = test system: Klebsiella pneumoniae ATCC 700603
[8] = test system: Bacillus subtilis ATCC 6633
Klebsiella pneumoniae = test system: Klebsiella pneumoniae
[9] = test system: Candida albicans ATCC 10231

MIC (Bacillus cereus): ≥ 120 µM
MIC (Escherichia coli): > 120 µM
Structure (SMILES): CSCC[C@H](NC(=O)[C@H](CO)NC(=O)[C@H](Cc1ccccc1)NC(=O)[C@@H](NC(=O)[C@H](CO)NC(=O)[C@@H]1CCCN1C(=O)[C@@H](NC(=O)[C@@H](NC(=O)[C@H](CCCCN)NC(=O)[C@H](CO)NC(=O)[C@H](C)NC(=O)[C@H](CC(C)C)NC(=O)[C@H](CO)NC(=O)[C@H](Cc1ccccc1)NC(=O)[C@H](CC(C)C)NC(=O)[C@H](C)N)C(C)C)C(C)C)C(C)C)C(=O)N[C@H](C(=O)N[C@H](C(=O)N[C@@H](CCCCN)C(=O)N[C@@H](CCCCN)C(=O)O)[C@@H](C)O)C(C)C [ALFSLASKVVPSVFSMVTKK]

MIC [1]: 3 µM (≈ 7.71 µg/mL)
MIC [2]: 3 µM (≈ 7.71 µg/mL)
MIC [3]: 25 µM (≈ 64.3 µg/mL)
Structure (SMILES): CC[C@H](C)[C@H](NC(=O)[C@H](C)NC(=O)CNC(=O)[C@H](CC(C)C)NC(=O)[C@@H](N)Cc1ccccc1)C(=O)N[C@@H](C)C(=O)NCC(=O)N[C@H](C(=O)N[C@@H](C)C(=O)N[C@@H](C)C(=O)N[C@@H](CCCCN)C(=O)N[C@@H](Cc1ccccc1)C(=O)N[C@@H](CC(C)C)C(=O)N1CCC[C@H]1C(=O)N[C@@H](CCCCN)C(=O)N[C@H](C(=O)N[C@@H](Cc1ccccc1)C(=O)N[C@H]1CSSC[C@@H](C(=O)O)NC(=O)[C@H](CCCCN)NC(=O)[C@H](CCCCN)NC(=O)[C@H]([C@@H](C)O)NC(=O)[C@H]([C@@H](C)CC)NC(=O)[C@H](Cc2ccccc2)NC1=O)C(C)C)C(C)C [FLGAIAGVAAKFLPKVFCFITKKC]

MIC (Staphylococcus aureus): > 59.4 µM
MIC (Bacillus cereus): ≥ 59.4 µM
MIC (Escherichia coli): 59.4 µM (≈ 128 µg/mL)
Structure (SMILES): CC(C)C[C@H](NC(=O)[C@@H](N)Cc1ccccc1)C(=O)NCC(=O)N[C@@H](CCCCN)C(=O)N[C@H](C(=O)N[C@@H](Cc1ccccc1)C(=O)N[C@@H](CCCCN)C(=O)NCC(=O)N[C@H](C(=O)N[C@@H](CO)C(=O)N[C@@H](CCCCN)C(=O)N[C@H](C(=O)N[C@@H](Cc1ccccc1)C(=O)N1CCC[C@H]1C(=O)N[C@@H](C)C(=O)N[C@H](C(=O)N[C@@H](Cc1ccccc1)C(=O)NCC(=O)N[C@@H](CCCCN)C(=O)N[C@H](C(=O)O)C(C)C)C(C)C)C(C)C)C(C)C)C(C)C [FLGKVFKGVSKVFPAVFGKV]

MIC (Staphylococcus aureus): > 59.5 µM
MIC (Bacillus cereus): ≥ 59.5 µM
MIC (Escherichia coli): 59.5 µM (≈ 128 µg/mL)
Structure (SMILES): CC(C)C[C@H](NC(=O)[C@@H](N)Cc1ccccc1)C(=O)NCC(=O)N[C@@H](CCCCN)C(=O)N[C@H](C(=O)N[C@@H](Cc1ccccc1)C(=O)N[C@@H](CCCCN)C(=O)N[C@@H](CCCCN)C(=O)N[C@@H](C)C(=O)N[C@@H](CO)C(=O)N[C@@H](CCCCN)C(=O)N[C@H](C(=O)N[C@@H](Cc1ccccc1)C(=O)N1CCC[C@H]1C(=O)N[C@@H](C)C(=O)N[C@H](C(=O)N[C@H](C(=O)NCC(=O)N[C@@H](CCCCN)C(=O)N[C@H](C(=O)O)C(C)C)C(C)C)C(C)C)C(C)C)C(C)C [FLGKVFKKASKVFPAVVGKV]

MIC (Staphylococcus aureus): 2.36 µM (≈ 8.16 µg/mL)
MIC (Candida albicans): 1.18 µM (≈ 4.08 µg/mL)
MIC (Bacillus subtilis): 2.36 µM (≈ 8.16 µg/mL)
MIC (Escherichia coli): 4.71 µM (≈ 16.3 µg/mL)
Structure (SMILES): CC(C)C[C@H](NC(=O)[C@H](C)NC(=O)[C@H](CC(C)C)NC(=O)[C@H](CC(N)=O)NC(=O)[C@H](CCCCN)NC(=O)[C@H](Cc1ccccc1)NC(=O)[C@@H](NC(=O)[C@H](CC(=O)O)NC(=O)[C@H](CC(C)C)NC(=O)[C@H](Cc1ccccc1)NC(=O)CN)[C@@H](C)O)C(=O)N[C@@H](CC(N)=O)C(=O)N[C@@H](C)C(=O)N[C@@H](C)C(=O)N[C@@H](CCCCN)C(=O)N[C@@H](CO)C(=O)N[C@@H](C)C(=O)NCC(=O)N[C@H](C(=O)N[C@@H](CO)C(=O)N[C@H](C(=O)N[C@@H](CC(C)C)C(=O)N[C@@H](CC(N)=O)C(=O)N[C@@H](CO)C(=O)N[C@@H](CC(C)C)C(=O)N[C@@H](CO)C(=O)N[C@H]1CSSC[C@@H](C(=O)O)NC(=O)[C@H]([C@@H](C)O)NC(=O)[C@H](CCCCN)NC(=O)[C@H](Cc2ccccc2)NC(=O)[C@H](CC(C)C)NC(=O)[C@H](CCCCN)NC1=O)C(C)C)C(C)C [GFLDTFKNLALNAAKSAGVSVLNSLSCKLFKTC]

MIC [4]: 40 µM (≈ 61.2 µg/mL)
MIC [1]: ≥ 40 µM
MIC [5]: 40 µM (≈ 61.2 µg/mL)
MIC [3]: 20 µM (≈ 30.6 µg/mL)
Structure (SMILES): CC[C@H](C)[C@H](NC(=O)[C@H](CCCN=C(N)N)NC(=O)[C@H](CCC(N)=O)NC(=O)[C@@H](NC(=O)[C@@H](NC(=O)[C@H](CCCN=C(N)N)NC(=O)[C@@H](N)CCCCN)[C@@H](C)CC)C(C)C)C(=O)N[C@@H](CCCCN)C(=O)N[C@@H](CC(=O)O)C(=O)N[C@@H](Cc1ccccc1)C(=O)N[C@@H](C)C(=O)N[C@@H](CCCN=C(N)N)C(=O)O [KRIVQRIKDFAR]

MIC [6]: 25 µM (≈ 50.9 µg/mL)
MIC [7]: 50 µM (≈ 102 µg/mL)
MIC [8]: 6.4 µM (≈ 13 µg/mL)
MIC [5]: 50 µM (≈ 102 µg/mL)
MIC [2]: 50 µM (≈ 102 µg/mL)
MIC [3]: 50 µM (≈ 102 µg/mL)
Structure (SMILES): CC(=O)N[C@@H](CC(C)C)C(=O)N[C@@H](Cc1ccccc1)C(=O)N[C@@H](CCCCN)C(=O)N[C@@H](CCCCN)C(=O)N[C@@H](CC(N)=O)C(=O)N[C@@H](CCCCN)C(=O)N[C@@H](CC(C)C)C(=O)N[C@@H](Cc1c[nH]c2ccccc12)C(=O)N[C@@H](Cc1ccccc1)C(=O)N[C@@H](CCCCN)C(=O)N[C@@H](CO)C(=O)N[C@@H](CCCCN)C(=O)N[C@@H](CCCCN)C(=O)N[C@@H](Cc1c[nH]c2ccccc12)C(=O)N[C@@H](CC(C)C)C(N)=O [LFKKNKLWFKSKKWL]

MIC (Bacillus cereus): ≥ 122 µM
MIC (Escherichia coli): > 122 µM
Structure (SMILES): CC[C@H](C)[C@H](NC(=O)[C@H](CC(C)C)NC(=O)[C@H](CO)NC(=O)[C@@H]1CCCN1C(=O)[C@@H](NC(=O)[C@@H](NC(=O)[C@H](CCCCN)NC(=O)[C@H](CO)NC(=O)[C@H](C)NC(=O)[C@@H](NC(=O)[C@H](CO)NC(=O)[C@H](Cc1ccccc1)NC(=O)[C@@H](NC(=O)[C@@H](NC(=O)[C@@H]1CCCN1)C(C)C)C(C)C)C(C)C)C(C)C)C(C)C)C(=O)N[C@@H](CO)C(=O)N[C@@H](C)C(=O)N[C@@H](CC(C)C)C(=O)N[C@@H](CCCCN)C(=O)N[C@@H](CCCN=C(N)N)C(=O)O [PVVFSVASKVVPSLISALKR]

MIC (Klebsiella pneumoniae): > 189 µM
MIC (Candida albicans): 384 µM (≈ 1020 µg/mL)
MIC [2]: > 192 µM
MIC [3]: 96.1 µM (≈ 256 µg/mL)
Structure (SMILES): CC[C@H](C)[C@H](NC(=O)CNC(=O)[C@H](CC(N)=O)NC(=O)[C@@H](NC(=O)[C@H](C)NC(=O)[C@H](CC(N)=O)NC(=O)[C@H](CC(C)C)NC(=O)[C@H](C)NC(=O)[C@H](C)NC(=O)[C@H](CCCN=C(N)N)NC(=O)CNC(=O)[C@H](C)NC(=O)[C@H](C)NC(=O)[C@H](C)NC(=O)[C@H](C)NC(=O)[C@H](CCSC)NC(=O)[C@H](CC(=O)O)NC(=O)[C@H](CCCCN)NC(=O)[C@@H](NC(=O)[C@H](CO)NC(=O)[C@H](CO)NC(=O)[C@H](CCCN=C(N)N)NC(=O)[C@H](CC(C)C)NC(=O)[C@@H](N)CO)[C@@H](C)CC)C(C)C)C(=O)N[C@H](C(=O)N[C@@H](CC(N)=O)C(=O)N1CCC[C@H]1C(N)=O)C(C)C [SLRSSIKDMAAAAGRAALNAVNGIVNP]

MIC (Bacillus cereus): ≥ 128 µM
MIC (Escherichia coli): > 128 µM
Structure (SMILES): CC[C@H](C)[C@H](NC(=O)[C@@H](NC(=O)[C@H](CO)NC(=O)[C@@H]1CCCN1C(=O)[C@@H](NC(=O)[C@@H](NC(=O)[C@H](CCCCN)NC(=O)[C@H](CO)NC(=O)[C@H](C)NC(=O)[C@@H](NC(=O)CNC(=O)[C@H](Cc1ccccc1)NC(=O)[C@@H](NC(=O)[C@@H](NC(=O)[C@@H](N)CO)C(C)C)C(C)C)C(C)C)C(C)C)C(C)C)C(C)C)C(=O)NCC(=O)N[C@@H](CCCCN)C(=O)N[C@H](C(=O)N[C@@H](CCCCN)C(=O)N[C@H](C(=O)O)[C@@H](C)O)C(C)C [SVVFGVASKVVPSVIGKVKT]

MIC (Bacillus cereus): ≥ 124 µM
MIC (Escherichia coli): > 124 µM
Structure (SMILES): CC[C@H](C)[C@H](NC(=O)[C@H](CC(C)C)NC(=O)[C@H](CO)NC(=O)[C@@H]1CCCN1C(=O)[C@@H](NC(=O)[C@@H](NC(=O)[C@H](CCCCN)NC(=O)[C@H](CO)NC(=O)[C@H](C)NC(=O)[C@@H](NC(=O)[C@H](CCCN=C(N)N)NC(=O)CNC(=O)[C@@H](NC(=O)[C@@H](N)C(C)C)C(C)C)C(C)C)C(C)C)C(C)C)C(=O)NCC(=O)N[C@@H](CC(C)C)C(=O)N[C@@H](Cc1ccccc1)C(=O)N[C@H](C(=O)N[C@H](C(=O)N[C@@H](CCCCN)C(=O)O)[C@@H](C)O)[C@@H](C)O [VVGRVASKVVPSLIGLFTTK]

MIC [4]: 2.32 µM (≈ 4.9 µg/mL)
MIC [5]: 9.39 µM (≈ 19.8 µg/mL)
MIC [9]: 77.6 µM (≈ 164 µg/mL)
Structure (SMILES): CC[C@H](C)[C@H](NC(=O)[C@H](CC(C)C)NC(=O)[C@H](CC(C)C)NC(=O)CNC(=O)[C@H](CCCCN)NC(=O)[C@H](CC(C)C)NC(=O)[C@H](CCCCN)NC(=O)[C@@H]1CCCN1C(=O)[C@H](CC(C)C)NC(=O)[C@H](CC(C)C)NC(=O)[C@H](CC(C)C)NC(=O)[C@H](CCCCN)NC(=O)[C@H](CC(C)C)NC(=O)[C@H](CC(C)C)NC(=O)[C@H](CCCCN)NC(=O)[C@@H](N)Cc1ccc(O)cc1)C(=O)N[C@@H](CCCCN)C(=O)N[C@@H](CC(C)C)C(N)=O [YKLLKLLLPKLKGLLIKL]
